Results on 14 compounds are retold here after PMC8205225, “Structural Basis of Metallo-β-lactamase Inhibition by N-Sulfamoylpyrrole-2-carboxylates” (ACS Infectious Diseases, 2021).

In assay [1] the target is T1, IMP-1 (Serratia marcescens, UniProt P52699).
T1 construct: made in house
The settings on record: determined using 100 μM nitrocefin; cited from earlier work.

Assay [2] has as its target T2, NDM-1 (Klebsiella pneumoniae, UniProt C7C422).
T2 construct: made in house
The settings on record: determined using 100 μM nitrocefin; cited from earlier work.

Assay [3] has as its target T3, VIM-2 (Escherichia coli, UniProt Q5U7L7).
T3 construct: made in house
The settings on record: determined using 100 μM nitrocefin; cited from earlier work.

The target of assay [4] is T1, IMP-1. Nature of the assay: fluorogenic cephalosporin FC5 MBL inhibition assay, IMP-1. The format is biochemical. Particulars: FC5 5 μM, enzyme 20 pM, quadruplicate; read-out: pIC50 IMP-1 (converted). The procedure:
(§1) The NSPCs were screened against four of the currently most clinically relevant B1 MBLs, i.e. VIM-1, VIM-2, NDM-1, and IMP-1 (Table 1), using an assay employing the “fluorogenic” cephalosporin FC5.[40]
(§2) The inhibitory activity of NSPCs 6, 8-14 against representative B1 subfamily MBLs [obtained according to previously reported production and purification procedures: VIM-1,5 VIM-2, NDM-1 and IMP-16] was determined using a fluorogenic assay monitoring the enzymatic breakdown of the cephalosporin probe FC5.6 The FC5/meropenem assays were conducted at room temperature in clear-bottomed Greiner 384 black well microplates (FC5) or Greiner 96 well UV star microplates (meropenem), using a ClarioStar or PHERAstar FS microplate reader (BMG LabTech). Representative β-lactamases were tested at the following concentrations:
(§3) VIM-1, 100 pM; NDM-1, 20 pM; IMP-1, 20 pM; and VIM-2, 500 pM. The concentration of FC5 employed was 5 μM for all enzymes. IMP-1, VIM-1, VIM-2 and NDM-1 inhibition assays were screened in “MBL buffer” (50 mM HEPES, pH 7.2, 1 μM ZnSO4, 1 μg mL−1 BSA, 0.01% v/v Triton X-100). The initial rates of reaction (measured after 10 min pre-incubation of the NSPC with the enzyme) were assessed by monitoring the fluorescence intensity at λex = 380 nm and λem = 460 nm. Following the determination of initial rates of reaction, the data were fitted using a four-parameter function: log (inhibitor) vs. response, variable slope in GraphPad Prism 6 to obtain IC50 values.6, 7

Assay [5] concerns the target T2, NDM-1. Nature of the assay: fluorogenic cephalosporin FC5 MBL inhibition assay, NDM-1. The format is biochemical. Particulars: for IC50: FC5 5 μM, enzyme 20 pM, quadruplicate, read-out: pIC50 NDM-1 (converted); for activity (IC50) for inhibition of NDM-1, in words: FC5 assay. The procedure:
as §1, §2, §3

In assay [6] the target is T3, VIM-2. Kind of assay: fluorogenic cephalosporin FC5 MBL inhibition assay, VIM-2. The format is biochemical. The settings on record: FC5 5 μM, enzyme 500 pM, quadruplicate; read-out: pIC50 VIM-2 (converted). On the procedure:
as §1, §2, §3

The target in assay [7] is T4, VIM-1 (Pseudomonas aeruginosa, UniProt A0A0F7KYQ8).
T4 construct: made in house
Kind of assay: fluorogenic cephalosporin FC5 MBL inhibition assay, VIM-1. The format is biochemical. Particulars: FC5 5 μM, enzyme 100 pM, quadruplicate; for IC50: read-out: pIC50 VIM-1 (converted). On the procedure: as §1, §2, §3

Assay [8] has as its target T2, NDM-1. Further details: method as in PMID 32184250. Particulars: determined by measuring hydrolysis of imipenem; cited from earlier work.
The target in assay [9] is T3, VIM-2. Set-up: method as in PMID 32184250. Particulars: determined by measuring hydrolysis of imipenem; cited from earlier work.
Assay [10] addresses T1, IMP-1. Further details: method as in PMID 32184250. The settings on record: determined by measuring hydrolysis of imipenem; cited from earlier work.
Assay [11] has as its system E. coli S117 blaNDM-1. Further details: method as in PMID 31454231. The settings on record: strain S117, VNRX at 10 μg mL^–1 (printed in the [I] 8 row); cited from earlier work.
The target of assay [12] is T1, IMP-1. Particulars: cited from earlier work.
For assay [13], the system named is K. pneumoniae B68-1 blaNDM-1. Further details: method as in PMID 31454231. The settings on record: strain B68-1, VNRX at 10 μg mL^–1 (printed in the [I] 8 row); cited from earlier work.
In assay [14] the target is T3, VIM-2. The settings on record: cited from earlier work.
Assay [15] deals with E. coli IR57 blaNDM-1. Set-up: method as in PMID 31454231. Particulars: strain IR57, VNRX at 10 μg mL^–1 (printed in the [I] 8 row); cited from earlier work.
In assay [16] the target is T4, VIM-1. Particulars: cited from earlier work.
For assay [17], the system named is K. pneumoniae IR43 blaNDM-1. Set-up: method as in PMID 31454231. Particulars: strain IR43, VNRX at 10 μg mL^–1 (printed in the [I] 8 row); cited from earlier work.

Read-outs that look alike come from different tables or passages of the source.

T1 sequence (P52699 19-246, looked up, species assumed): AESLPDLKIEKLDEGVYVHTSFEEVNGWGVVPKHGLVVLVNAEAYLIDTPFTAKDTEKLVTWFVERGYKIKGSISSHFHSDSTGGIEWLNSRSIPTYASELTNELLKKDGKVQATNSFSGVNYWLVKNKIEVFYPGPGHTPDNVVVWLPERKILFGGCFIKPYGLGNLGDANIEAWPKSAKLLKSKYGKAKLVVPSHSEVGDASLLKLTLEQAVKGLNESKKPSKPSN
T2 sequence (C7C422 29-270, looked up, species assumed): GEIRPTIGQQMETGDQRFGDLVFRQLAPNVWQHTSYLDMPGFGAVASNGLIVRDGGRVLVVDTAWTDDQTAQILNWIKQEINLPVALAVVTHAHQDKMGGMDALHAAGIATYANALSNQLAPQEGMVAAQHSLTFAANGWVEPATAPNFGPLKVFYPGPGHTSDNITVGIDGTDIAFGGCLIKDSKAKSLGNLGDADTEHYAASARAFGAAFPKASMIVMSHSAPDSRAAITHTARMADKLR

As for `NS(=O)(=O)n1ccc(-c2ccc(C3CCNCC3)cc2)c1C(=O)O` [AMRC276], the “pIC50 IMP-1” value in assay [1] is 7.4[22]. Moreover, the “pIC50 NDM-1” value in [2] is 6.8[22]. Moreover, the “pIC50 VIM-2” value in [3] was 4.2[22].

For `NS(=O)(=O)n1ccc(-c2ccc(F)cc2)c1C(=O)O` [6a, 3-(4-Fluorophenyl)-1-sulfamoyl-1H-pyrrole-2-carboxylic acid], the IC50 in assay [4] is 0.631 nM; in assay [5], 7.94 nM; in assay [6] it was 20 nM; in assay [7], 126 nM. Also, in assay [5], the “activity (IC50) for inhibition of NDM-1, in words” value (“activity (IC50) for inhibition” below) is “nanomolar potency”.

Take `NC(=O)c1ccc(-c2ccn(S(N)(=O)=O)c2C(=O)O)cc1` [compound 8]: the IC50 in [4] was 2.51 nM; in assay [5] it was 12.6 nM; in assay [6], 158 nM; in assay [7], 79.4 nM.

`NS(=O)(=O)n1ccc(-c2cn[nH]c2)c1C(=O)O` [compound 10]: the IC50 in assay [4] is 1.26 nM; in assay [5], 7.94 nM; in assay [6], 15.8 nM; in assay [7] it was 79.4 nM. Further, the “activity (IC50) for inhibition” value in assay [5] was “nanomolar potency”.

In the case of `NS(=O)(=O)n1ccc(-c2ccc(=O)[nH]c2)c1C(=O)O` [AMRC364], the “pIC50 IMP-1” value in assay [1] is 5.7[22]. Moreover, in assay [2], the “pIC50 NDM-1” value was 5.6[22]. Besides, in assay [3], the “pIC50 VIM-2” value was 4.4[22].

`Nc1nc2ccc(-c3ccn(S(N)(=O)=O)c3C(=O)O)cn2n1` [compound 14, 3-(2-Amino-[1,2,4]triazolo[1,5-a]pyridin-6-yl)-1-sulfamoyl-1H-pyrrole-2-carboxylic acid]: the IC50 in [4] was 5.01 nM; in [5], 12.6 nM; in [6] it was 6.31 nM; in [7], 39.8 nM.

Turning to `CS(=O)(=O)c1ccc(-c2ccn(S(N)(=O)=O)c2C(=O)O)cc1` [AMRC439], the “pIC50 IMP-1” value in assay [1] is 6.3[22]. In addition, the “pIC50 NDM-1” value in assay [2] was 6.4[22]. In addition, the “pIC50 VIM-2” value in [3] was 4.3[22].

In the case of `NS(=O)(=O)n1ccc(-c2ccc(F)cc2)c1C(=O)[O-].[Na+]` [6b], the values for the IC50 in [4], in assay [5] and in assay [6] were 1.26 nM, 6.31 nM and 31.6 nM, respectively. Besides, the “activity (IC50) for inhibition” value in [5] is reported as “nanomolar potency”. Moreover, in assay [7], the “pIC50 VIM-1” value came to 6.9.

On to `Nc1ncc(-c2ccn(S(N)(=O)=O)c2C(=O)O)cn1` [compound 11], for which the IC50 in assay [4] was 6.31 nM; in [5], 12.6 nM; in assay [6], 50.1 nM; in assay [7] it was 39.8 nM.

For `CCc1c(C(=O)O)c(S(N)(=O)=O)c(CC)n1C` [SPC], in assay [8], the “pIC50 NDM-1” value was 6.0[21]. The “pIC50 VIM-2” value in assay [9] was 7.7[21]. In addition, the “pIC50 IMP-1” value in [10] is 6.6[21].

On to `Nc1ccc(-c2ccn(S(N)(=O)=O)c2C(=O)[O-])cn1.[Na+]` [compound 9], for which the “pIC50 IMP-1” value in assay [1] is 6.4[22]. In addition, the “pIC50 NDM-1” value in assay [2] was 6.1[22]. The IC50 in assay [4] is 1 nM; in assay [5] it was 12.6 nM; in assay [6], 200 nM; in assay [7], 316 nM. In assay [3], the “pIC50 VIM-2” value is 4.5[22].

On to `NCCN[C@H]1CC[C@H](CC(=O)N[C@H]2Cc3cccc(C(=O)O)c3OB2O)CC1` [taniborbactam], for which the “MIC of MEM in combination with VNRX” value in [11] was 1 μg mL^–1; in [13], 0.5 μg mL^–1; in assay [15] it was 0.5 μg mL^–1; in [17], 0.25 μg mL^–1. For the same compound, the “pIC50 IMP-1” value in assay [12] is 5.6[41]. In addition, the “pIC50 VIM-2” value in assay [14] was 8.3[41]. In addition, in assay [16], the “pIC50 VIM-1” value was 8.1[41].

On to `NS(=O)(=O)n1ccc(-c2ccc(N3CCOCC3)cc2)c1C(=O)O` [compound 13], for which the IC50 in [4] is less than 0.631 nM; in [5] it was 1.58 nM; in assay [6], 158 nM; in assay [7], 251 nM. Besides, the “activity (IC50) for inhibition” value in assay [5] is reported as “nanomolar potency”.

With `N=C1NCC(c2ccn(S(N)(=O)=O)c2C(=O)O)CN1` (centres unmarked) [compound 12], the IC50 in [4] is 50.1 nM; in assay [5], 316 nM; in assay [6], 12.6 nM; in assay [7] it was 3.16 nM.
